Results as given in ChEMBL document CHEMBL4190224, “Xanthohumol Blocks Proliferation and Migration of Vascular Smooth Muscle Cells in Vitro and Reduces Neointima Formation in Vivo” (J Nat Prod, 2017).
Calls of active or inactive are those of the source. The rule behind the calls is not given here.

Assays:
[1] = tested on: VSMC; assay: Cytotoxicity against rat VSMC at 1 to 15 uM after 48 hrs by LDH release assay; assay type: cell-based
[2] = tested on: VSMC; assay: Antimigratory activity against PDGF-BB-stimulated rat VSMC at 15 uM preincubated for 30 mins followed by PDGF-BB addition measured after 20 hrs by scratch wound-healing assay; assay type: functional, cell-based
[3] = tested on: VSMC; assay: Inhibition of PDGF-BB-induced rat VSMC proliferation preincubated for 30 mins followed by PDGF-BB addition measured after 48 hrs by resazurin assay; assay type: functional, cell-based
[4] = tested on: Mus musculus; assay: Inhibition of cuff-induced restenosis in C57BL/6 mouse femoral artery cuff model assessed as reduction in neointima formation dosed via local application using compound dissolved on F-127 gel measured after 2 weeks by hematoxylin and eosin staining-based microscopic analysis; assay type: functional, organism-based

COc1cc(O)c(CC=C(C)C)c(O)c1C(=O)/C=C/c1ccc(O)cc1 [XANTHOHUMOL]
Activity [1]: Non-Toxic
Activity [2]: Active
IC50 [3]: 3.49 µM
inhibition [3]: Dose-dependent effect
Activity [4]: Active
